Test results as given in EP2271935B1, “METHOD AND KIT FOR THE EX VIVO EVALUATION OF THE RESPONSE OF A TUMOR TO CONDITIONS TO BE TESTED” (Universität Leipzig, priority 2008, dated 2009).

Test system: epithelial cell line KB (DSMZ ACC 136)
Test: MTT assay of proliferation under varied riboflavin content and light exposure
Assay type: cell-based, human
Source text: To address this question, three media, a) the RPMI 1640 without riboflavin and phenol red that is used in the method according to the invention and was manufactured according to our specifications by Biochrom, as well as two different RPMI 1640 charges purchased from Invitrogen which were each containing 532 nmol/L riboflavin, b) a phenol red-free (Gibco 11835), and c) a conventional RPMI 1640 (Gibco 21875) with 13.284 µmol/L phenol red. All media were supplemented with 2 mmol/L L-alanyl-1-glutamine as stabilized glutamine source (Biochrom K0302 Lot 0755 S) and the same amount of 10% (v/v) of heat-inactivated fetal calf serum (FCS) that was purchased from Invitrogen (Lot 41Q7554K) with a yield of 198 nmol/L riboflavin. […] These medium concentrations define the riboflavin concentrations in controls (see below).
In addition to the influences exerted by the different types of media alone, the riboflavin-dependent impact on the outcome of the docetaxel treatment was investigated. For this purpose 100 µl/well of docetaxel dilutions containing threefold the concentration indicated were added into the wells of microwell plates. The following seven docetaxel concentrations were tested: 19.38, 38.75, 77.5, 155, 310, 620, and 1,240 pmol/L.
To examine photoactivation-dependent riboflavin-mediated effects disturbing the outcome of ex-vivo chemoresponse-evaluation by conventional cell culture medium, and in particular in the absence of flavin-protecting experimental conditions, varying amounts of riboflavin were added. A stock solution of 200 µM (-)-riboflavin (CAS 83-68-5, Sigma R9504, FW=376.37 g/mol, purity >99%, cell culture tested) in phosphate buffered saline was diluted to adjust in each case the highest final concentration in culture (this means: after completion of the assay by addition of the other two components to the final assay volume of 300 µL) to exactly 10 µmol/L. Serial log10-dilutions were made from this concentration in each corresponding medium. These gave final concentrations in cell culture of 10.000, 1.018, 0.12, and 0.03 µmol/L in the case of medium a) (the medium according to the method of the invention), and concentrations of 10.000, 1.449, 0.594, and 0.508 µmol/L using media b) and c).
In general, each combination of riboflavin and docetaxel were tested in duplicate, and controls without additional riboflavin in quadruplicate for each experimental setting in the same 96-well plate. The experimental conditions were as follows: For each of the used media, two different plates were prepared simultaneously and either handled completely under flavin-protecting conditions (illumination only by sodium discharge lamps with an emission wavelength of 589 nm [i]), or in the same bench (Thermo MSC 12) with the installed light inside their working chamber switched on. The dilution of docetaxel and those of riboflavin in the particular medium were prepared for all four plates of each medium type prior to the other working steps under flavin-protecting conditions. Thus the administrations of these dilutions took about 20 min either under flavin-protecting conditions or illuminated conditions. After completed preparation of the plates that thereafter contained 200 µL of both diluted compounds, the plates were incubated 2 h in the incubator to allow for adjustment of the appropriate pH.
In between the stock culture of KB was harvested by trypsination of a 3-days stock culture (exponential growth phase). Stock cultures of KB cells always were grown without any antibiotic or antimycotic in phenol red- and riboflavin-free RPMI 1640 supplemented with 10% (v/v) FCS and were adapted to this medium for more than five passages. They were always handled at room temperature or warmer and were never exposed to light other than the light of a sodium discharge lamp with an emission wavelength of 589 nm for at least five passages. […]

Cc1cc2nc3c(=O)[nH]c(=O)nc-3n(C[C@H](O)[C@H](O)[C@H](O)CO)c2cc1C [riboflavin, (-)-riboflavin]
toxicity of riboflavin to KB cells (10 µmol/L riboflavin; plate 03, medium a), bench lighting below 30 min): complete die off of the KB cells | riboflavin concentrations leading to complete dying of all KB cells (exposed to daylight 30 min (plates 02, 04, 06, 08, 10, and 12)): above 594 nmol/L
